Data on 16 compounds can be found in the SangsterLogP compilation.

A short description of one data set: method code SF, from DOI: 10.1021/jm00344a020, PMID: 7057427.
The compound `O=C(NN1CC=CCC1)C1CC1` registered a logP of 1.12.

`O=C(NC1CCCC1)N1CC=CCC1` yielded a logP of 1.92.

For `O=C(NN1CC=CCC1)C1CCCCC1`, the logP was 0.45.

Consider `CC(=O)NN1CC=CCC1`, for which the logP turned out to be 0.52. This logP and that of the compound before are within 0.2 log units of each other.

Turning to `CCOC(=O)NN1CC=CCC1`, the logP was 1.09.

As to `O=C(NN1CC=CCC1)C1CCCCCC1`, the logP came out at 1.5.

The next data set is described as follows: method code SF-AS, from DOI: 10.1021/jm00344a020, PMID: 7057427.
Compound `O=C(Cc1ccc2c(c1)OCO2)NN1CC=CCC1` registered a logP of 0.68.

In turn, `O=C(NN1CC=CCC1)c1cccs1` returned a logP of 1.88.

As for `O=C(NN1CC=CCC1)c1cccc[n+]1[O-]`, the logP was -0.32.

The compound `CC(C)(C)C(=O)NN1CC=CCC1` registered a logP of 1.03.

Take `O=C(NN1CC=CCC1)C12CC3CC(CC(C3)C1)C2`: the logP amounted to 1.45.

Take `O=C(Cc1cccnc1)NN1CC=CCC1`: the logP was 0.05.

For `O=C(NN1CC=CCC1)c1cccc(C(=O)NN2CC=CCC2)n1`, the logP was -0.52.

Take `O=C(NN1CC=CCC1)c1ccco1`: the logP was found to be 0.81.

Compound `O=C(COc1ccccc1)NN1CC=CCC1` came in with a logP of -0.06.

`O=C(COc1cccc2ccccc12)NN1CC=CCC1` had a logP of 1.96.
